# Values of other authors, collected in patent publication US9636301B2, “In vitro release assay for liposome encapsulated vincristine” (ARBUTUS BIOPHARMA CORPORATION, priority 2012, dated 2017).
# Details: water
substance,measurement,value
22-oxovincaleukoblastine [Vincristine sulfate],solubility,soluble in water
